Laboratory results from patent US20110045101A1, “FUNGICIDAL SUBSTITUTED AZOLES” (E.I. Du Pont De Nemours and Company, priority 2009, published 2011).
Marks after values point to notes of the source that are not given here.

Columns and labels:
Type in all cases: in vivo
Conditions in all cases: 100 = 100% disease control
[1] = system: Puccinia recondita f. sp. tritici; experiment: Test H: wheat leaf rust, test suspension sprayed after inoculation of wheat seedlings, visual disease rating
Method in brief: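 Wheat seedlings inoculated with P. recondita spores, held 24 h saturated at 20 °C, then 2 days in growth chamber at 20 °C; compound suspension (acetone/water with Trem 014) sprayed to run-off afterwards. Rated visually; 200 ppm (≈500 g/ha) unless marked *, which denotes 40 ppm.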

Septoria nodorum = experiment: Test F: wheat glume blotch on wheat seedlings, sprayed the day before inoculation, visual disease rating
Method in brief: (§1)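 Spray suspension: acetone 3% of final volume, then 50/50 acetone/water plus 250 ppm Trem® 014. Applied to run-off on seedlings at 200 ppm (≈500 g/ha); starred entries tested at 40 ppm.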

[2] = system: Puccinia recondita f. sp. tritici; experiment: Test I: wheat leaf rust on wheat seedlings, sprayed the day before inoculation, visual disease rating
Method in brief: as §1

Botrytis cinerea = experiment: Test C: tomato Botrytis on tomato seedlings, sprayed the day before inoculation, visual disease rating
Method in brief: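 Spray to run-off on tomato seedlings; test conc. 200 ppm (≈500 g/ha), some entries 40 ppm. Formulation: acetone 3% of final vol., then acetone/water 50:50 + 250 ppm polyhydric alcohol ester surfactant.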

Septoria tritici = experiment: Test G: wheat leaf blotch on wheat seedlings, sprayed the day before inoculation, visual disease rating
Method in brief: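 Visual disease ratings taken 19 days after transfer to a 20° C growth chamber, following 48 h in saturated atmosphere at 24° C. Seedlings had been sprayed to run-off one day before spore inoculation. Dose 200 ppm, or 40 ppm where starred.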

[3] = system: Erysiphe graminis f. sp. tritici; experiment: Test J: wheat powdery mildew on wheat seedlings, sprayed the day before inoculation, visual disease rating
Method in brief: as §1

Alternaria solani = experiment: Test D: tomato early blight, sprayed the day before inoculation, visual disease rating
Method in brief: as §1

[4] = 200 ppm, 0 = no control relative to controls
[5] = 40 ppm (marked *), 0 = no control

SMILES | Test H disease control rating [1, 4] | Test F disease control rating (Septoria nodorum; [4]) | Test I disease control rating [2, 4] | Test C disease control rating (Botrytis cinerea; [4]) | Test G disease control rating (Septoria tritici; [4]) | Test J disease control rating [3, 4] | Test D disease control rating (Alternaria solani; [4]) | further results
COc1cc(F)c(-c2c(Cl)nc(C)n2-c2ccc(OC)nc2)c(F)c1 [compound 714] | 100% | 100% | 100% | 100% | 99% | 100% | 100% | 
Cc1nc(Br)c(-c2ccc(Cl)cc2)n1-c1ccc(F)cc1Cl [compound 338] | 0% | 80% | 99% | 100% | 93% | 99% | 100% | 
COc1cc(F)c(-c2c(Cl)nc(Br)n2-c2cccc(OC(F)(F)F)c2)c(F)c1 [compound 547] | 0% | 60% | 99% | 99% | 97% | 100% | 88% | 
COc1cc(F)c(-c2c(Cl)nc(C)n2-c2ccc(OC(F)F)cc2)c(F)c1 [compound 569] | 84% | 100% | 100% | 100% | 97% | 99% | 100% | 
Cc1nc(Cl)n(-c2ccc(Cl)cc2)c1-c1c(F)ccc(F)c1Cl [compound 414] |  |  |  |  |  |  |  | Test H disease control rating [1, 5]: 0* %; Test F disease control rating (Septoria nodorum; [5]): 0* %; Test I disease control rating [2, 5]: 93* %; Test C disease control rating (Botrytis cinerea; [5]): 99* %; Test G disease control rating (Septoria tritici; [5]): 96* %; Test J disease control rating [3, 5]: 100* %; Test D disease control rating (Alternaria solani; [5]): 99* %
Fc1cc(-n2c(Br)nc(Br)c2-c2c(F)ccc(F)c2Cl)ccc1Cl [compound 459] |  |  |  |  |  |  |  | Test H disease control rating ([1]; 40 ppm (marked *)): 9* %; Test F disease control rating (Septoria nodorum; 40 ppm (marked *)): 0* %; Test I disease control rating ([2]; 40 ppm (marked *)): 98* %; Test C disease control rating (Botrytis cinerea; 40 ppm (marked *)): 99* %; Test G disease control rating (Septoria tritici; 40 ppm (marked *)): 95* %; Test J disease control rating ([3]; 40 ppm (marked *)): 98* %; Test D disease control rating (Alternaria solani; 40 ppm (marked *)): 63* %
Fc1cc(-n2cnc(Br)c2-c2c(F)ccc(F)c2Cl)ccc1Cl [compound 409] | 0% | 0% | 96% | 100% | 100% | 98% | 9% | 
COc1ccc(F)c(-c2c(Cl)ncn2-c2ccc(Br)cc2)c1F [compound 528] | 15% | 99% | 96% | 100% | 99% | 100% | 100% | 
CCc1ccc(-n2c(C)nc(Cl)c2-c2c(F)ccc(OC)c2F)cc1 [compound 479] | 0% | 95% | 99% | 100% | 94% | 100% | 100% | 
COc1cc(F)c(-n2cnc(C)c2-c2ccc(Cl)cc2)c(F)c1 [compound 688] |  |  |  |  |  |  |  | Test H disease control rating ([1]; 40 ppm (marked *)): 8* %; Test F disease control rating (Septoria nodorum; 40 ppm (marked *)): 0* %; Test I disease control rating ([2]; 40 ppm (marked *)): 0* %; Test C disease control rating (Botrytis cinerea; 40 ppm (marked *)): 100* %; Test G disease control rating (Septoria tritici; 40 ppm (marked *)): 97* %; Test J disease control rating ([3]; 40 ppm (marked *)): 78* %; Test D disease control rating (Alternaria solani; 40 ppm (marked *)): 33* %
Cc1ncn(-c2ccc(Cl)c(F)c2)c1-c1cccnc1Cl [compound 348] | 0% | 0% | 0% | 0% | 8% | 27% | 0% | 
Fc1ccc(-n2c(Br)nc(Br)c2-c2c(F)cc(F)cc2F)cc1 [compound 462] |  |  |  |  |  |  |  | Test H disease control rating ([1]; 40 ppm (marked *)): 0* %; Test F disease control rating (Septoria nodorum; 40 ppm (marked *)): 0* %; Test I disease control rating ([2]; 40 ppm (marked *)): 78* %; Test C disease control rating (Botrytis cinerea; 40 ppm (marked *)): 100* %; Test G disease control rating (Septoria tritici; 40 ppm (marked *)): 96* %; Test J disease control rating ([3]; 40 ppm (marked *)): 99* %; Test D disease control rating (Alternaria solani; 40 ppm (marked *)): 100* %
Fc1ccc(-n2c(Cl)nc(Br)c2-c2ccc(Cl)cc2)c(Cl)c1 [compound 324] | 9% | 82% | 97% | 99% | 93% | 99% | 99% | 
Cc1nc(Cl)c(Cc2c(F)cc(F)cc2F)n1-c1c(Cl)cccc1Cl [compound 537] | 9% | 60% | 100% | 99% | 97% | 99% | 76% | 
COc1ccc(F)c(-c2c(Cl)nc(Cl)n2Cc2ccc(Cl)cc2)c1F [compound 288] |  |  |  |  |  |  |  | Test H disease control rating ([1]; 200 ppm, 0 = no control): 32%; Test F disease control rating (Septoria nodorum; 200 ppm, 0 = no control): 73%; Test I disease control rating ([2]; 200 ppm, 0 = no control): 96%; Test C disease control rating (Botrytis cinerea; 200 ppm, 0 = no control): 100%; Test G disease control rating (Septoria tritici; 200 ppm, 0 = no control): 94%; Test J disease control rating ([3]; 200 ppm, 0 = no control): 99%; Test D disease control rating (Alternaria solani; 200 ppm, 0 = no control): 91%
COc1cc(F)c(-n2c(C)nc(Cl)c2-c2ccc(Cl)cc2)c(F)c1 [compound 423] |  |  |  |  |  |  |  | Test H disease control rating [1, 5]: 0* %; Test F disease control rating (Septoria nodorum; [5]): 69* %; Test I disease control rating [2, 5]: 91* %; Test C disease control rating (Botrytis cinerea; [5]): 100* %; Test G disease control rating (Septoria tritici; [5]): 94* %; Test J disease control rating [3, 5]: 99* %; Test D disease control rating (Alternaria solani; [5]): 0* %
Fc1ccc(-n2c(Br)nc(Br)c2-c2c(F)ccc(F)c2F)cc1 [compound 384] |  |  |  |  |  |  |  | Test H disease control rating [1, 5]: 0* %; Test F disease control rating (Septoria nodorum; [5]): 0* %; Test I disease control rating [2, 5]: 67* %; Test C disease control rating (Botrytis cinerea; [5]): 100* %; Test G disease control rating (Septoria tritici; [5]): 95* %; Test J disease control rating [3, 5]: 95* %; Test D disease control rating (Alternaria solani; [5]): 99* %
COc1ccc(F)c(-c2c(Cl)nc(Cl)n2-c2cccc(C)c2)c1F [compound 391] | 0% | 0% | 99% | 100% | 94% | 100% | 99% | 
COc1ccc(F)c(-c2c(Cl)nc(C)n2-c2cccc(F)c2)c1F [compound 315] | 86% | 100% | 100% | 99% | 95% | 100% | 100% | 
COc1cc(F)c(-c2c(Cl)nc(Br)n2Cc2ccc(Cl)cc2)c(F)c1 [compound 283] |  |  |  |  |  |  |  | Test H disease control rating ([1]; 200 ppm, 0 = no control): 0%; Test F disease control rating (Septoria nodorum; 200 ppm, 0 = no control): 0%; Test I disease control rating ([2]; 200 ppm, 0 = no control): 93%; Test C disease control rating (Botrytis cinerea; 200 ppm, 0 = no control): 100%; Test G disease control rating (Septoria tritici; 200 ppm, 0 = no control): 93%; Test J disease control rating ([3]; 200 ppm, 0 = no control): 99%; Test D disease control rating (Alternaria solani; 200 ppm, 0 = no control): 98%
COc1ccc(F)c(-c2c(Cl)nc(Br)n2-c2ccc(C)c(F)c2)c1F [compound 551] | 0% | 96% | 100% | 100% | 98% | 100% | 100% | 
COc1cc(F)c(-c2c(Cl)nc(Cl)n2-c2ccc(Cl)nc2OC)c(F)c1 [compound 514] | 0% | 73% | 93% | 99% | 100% | 99% | 99% | 
Cc1ccc(-n2c(Br)nc(Br)c2-c2c(F)ccc(F)c2F)cc1 [compound 461] |  |  |  |  |  |  |  | Test H disease control rating ([1]; 40 ppm (marked *)): 0* %; Test F disease control rating (Septoria nodorum; 40 ppm (marked *)): 0* %; Test I disease control rating ([2]; 40 ppm (marked *)): 97* %; Test C disease control rating (Botrytis cinerea; 40 ppm (marked *)): 99* %; Test G disease control rating (Septoria tritici; 40 ppm (marked *)): 94* %; Test J disease control rating ([3]; 40 ppm (marked *)): 98* %; Test D disease control rating (Alternaria solani; 40 ppm (marked *)): 99* %
COc1cc(F)c(-c2c(Cl)nc(C)n2-c2ccc(C)c(C#N)c2)c(F)c1 [compound 613] |  |  |  |  |  |  |  | Test H disease control rating ([1]; 40 ppm (marked *)): 15* %; Test F disease control rating (Septoria nodorum; 40 ppm (marked *)): 64* %; Test I disease control rating ([2]; 40 ppm (marked *)): 97* %; Test C disease control rating (Botrytis cinerea; 40 ppm (marked *)): 99* %; Test G disease control rating (Septoria tritici; 40 ppm (marked *)): 99* %; Test J disease control rating ([3]; 40 ppm (marked *)): 21* %; Test D disease control rating (Alternaria solani; 40 ppm (marked *)): 100* %
Cc1nc(Br)c(-c2c(F)cccc2F)n1-c1ccc(Cl)c2ccccc12 [compound 337] |  |  |  |  |  |  |  | Test H disease control rating [1, 5]: 0* %; Test F disease control rating (Septoria nodorum; [5]): 0* %; Test I disease control rating [2, 5]: 0* %; Test C disease control rating (Botrytis cinerea; [5]): 19* %; Test G disease control rating (Septoria tritici; [5]): 23* %; Test J disease control rating [3, 5]: 0* %; Test D disease control rating (Alternaria solani; [5]): 0* %
